According to patent US8071616B2, “Pyridine, quinoline, and isoquinoline N-oxides as kinase inhibitors” (Bayer Healthcare LLC, priority 2002, dated 2011):

SMILES: CNC(=O)c1cc(Oc2ccc(NC(=O)Nc3ccc(Cl)c(C(F)(F)F)c3)cc2)cc[n+]1[O-] [Experimental Synthesis 1, N-[4-chloro-3-(trifluoromethyl)phenyl]-N′-{4-[2-(N-methylcarbamoyl)-1-oxo-(4-pyridyloxy)]phenyl}urea]
- melting point: 232 to 234 °C
